From ChEMBL document CHEMBL1926601, “Persipeptides A and B, two cyclic peptides from Streptomyces sp. UTMC 1154” (Bioorg Med Chem, 2012)
Calls of active or inactive are those of the source. The rule behind the calls is not given here. Square brackets hold non-standard residues; d marks the D form. Peptide text beside a SMILES is read from it. NMeF = CN[C@@H](Cc1ccccc1)C(=O)O; NMeV = CN[C@H](C(=O)O)C(C)C

Legend:
Staphylococcus aureus [1] = experiment: Antimicrobial activity against Staphylococcus aureus at 100 ug/ml by agar diffusion test; format: functional, organism-based
Staphylococcus aureus [2] = experiment: Antimicrobial activity against methicillin-resistant Staphylococcus aureus at 100 ug/ml by agar diffusion test; format: functional, organism-based

Row | SMILES | Activity (Staphylococcus aureus [1]) | Activity (Staphylococcus aureus [2])
1 | CC(C)[C@@H]1NC(=O)[C@H](C(C)C)N(C)C(=O)[C@H](C(C)C)NC(=O)[C@H](Cc2ccccc2)N(C)C(=O)[C@H](Cc2ccccc2)NC1=O (cyclo(F[NMeF]V[NMeV]V)) | inactive | inactive
2 | CC(C)[C@@H]1NC(=O)[C@H](Cc2ccccc2)N(C)C(=O)[C@H](C(C)C)NC(=O)[C@H](C(C)C)N(C)C(=O)[C@H](Cc2ccccc2)NC1=O (cyclo(F[NMeV]V[NMeF]V)) | inactive | inactive
